Bounds are passed on as bounds.

The results in this text go back to patent US7799821B2, “Therapeutic compounds” (Allergan, Inc., priority 2004, dated 2010).

Assay [1] has as its target T1, hFP (Homo sapiens, UniProt P43088).
T1 construct: expressed in transfected cells; host or cells: HEK-293(EBNA)
Nature of the assay: FLIPR calcium signal, hFP. The assay is classed as cell-based. To be noted: Table 3, third part. The protocol:
HEK-293(EBNA) cells, stably expressing one type or subtype of recombinant human prostaglandin receptors (prostaglandin receptors expressed: hDP/Gqs5; hEP1; hEP2/Gqs5; hEP3A/Gqi5; hEP4/Gqs5; hFP; hIP; hTP), were cultured in 100 mm culture dishes in high-glucose DMEM medium containing 10% fetal bovine serum, 2 mM 1-glutamine, 250 μg/ml geneticin (G418) and 200 μg/ml hygromycin B as selection markers, and 100 units/ml penicillin G, 100 μg/ml streptomycin and 0.25 μg/ml amphotericin B. • (b) Calcium Signal Studies on the FLIPR™
Cells were seeded at a density of 5×10^4 cells per well in Biocoat® Poly-D-lysine-coated black-wall, clear-bottom 96-well plates (Becton-Dickinson) and allowed to attach overnight in an incubator at 37° C. Cells were then washed two times with HBSS-HEPES buffer (Hanks Balanced Salt Solution without bicarbonate and phenol red, 20 mM HEPES, pH 7.4) using a Denley Cellwash plate washer (Labsystems). After 45 minutes of dye-loading in the dark, using the calcium-sensitive dye Fluo-4 AM at a final concentration of 2 μM, plates were washed four times with HBSS-HEPES buffer to remove excess dye leaving 100 μl in each well. Plates were re-equilibrated to 37° C. for a few minutes.
Cells were excited with an Argon laser at 488 nm, and emission was measured through a 510-570 nm bandwidth emission filter (FLIPR™, Molecular Devices, Sunnyvale, Calif.). Drug solution was added in a 50 μl volume to each well to give the desired final concentration. The peak increase in fluorescence intensity was recorded for each well. On each plate, four wells each served as negative (HBSS-HEPES buffer) and positive controls (standard agonists: BW245C (hDP); PGE2 (hEP1; hEP2/Gqs5; hEP3A/Gqi5; hEP4/Gqs5); PGF2α (hFP); carbacyclin (hIP); U-46619 (hTP), depending on receptor). The peak fluorescence change in each drug-containing well was then expressed relative to the controls.
Compounds were tested in a high-throughput (HTS) or concentration-response (CoRe) format. […]

Assay [2] deals with T2, hTP (Homo sapiens, UniProt P21731).
T2 construct: expressed in transfected cells; host or cells: HEK-293(EBNA)
T2 sequence (P21731 1-343): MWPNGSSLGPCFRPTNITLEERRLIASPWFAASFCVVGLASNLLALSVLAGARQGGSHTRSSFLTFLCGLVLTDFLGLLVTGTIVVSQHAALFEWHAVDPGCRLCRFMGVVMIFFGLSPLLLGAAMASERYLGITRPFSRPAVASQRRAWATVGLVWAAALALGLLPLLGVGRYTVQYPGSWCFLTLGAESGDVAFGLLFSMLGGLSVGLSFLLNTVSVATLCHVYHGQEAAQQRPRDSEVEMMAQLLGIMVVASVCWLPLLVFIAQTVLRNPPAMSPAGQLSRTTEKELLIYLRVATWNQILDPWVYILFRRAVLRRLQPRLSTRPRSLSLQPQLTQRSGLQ
Nature of the assay: FLIPR calcium signal, hTP. The assay is classed as cell-based. The procedure, abridged:
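HEK-293(EBNA) cells stably expressing the recombinant human receptor were loaded with 2 μM Fluo-4 AM for 45 min and read on FLIPR at 37° C in HBSS-HEPES pH 7.4. Peak fluorescence rise was expressed relative to buffer and standard agonist controls (BW245C, PGE2 or U-46619 by receptor); compounds were run 10^−5 to 10^−11 M in duplicate, n≧3.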

T1 sequence (P43088 whole entry): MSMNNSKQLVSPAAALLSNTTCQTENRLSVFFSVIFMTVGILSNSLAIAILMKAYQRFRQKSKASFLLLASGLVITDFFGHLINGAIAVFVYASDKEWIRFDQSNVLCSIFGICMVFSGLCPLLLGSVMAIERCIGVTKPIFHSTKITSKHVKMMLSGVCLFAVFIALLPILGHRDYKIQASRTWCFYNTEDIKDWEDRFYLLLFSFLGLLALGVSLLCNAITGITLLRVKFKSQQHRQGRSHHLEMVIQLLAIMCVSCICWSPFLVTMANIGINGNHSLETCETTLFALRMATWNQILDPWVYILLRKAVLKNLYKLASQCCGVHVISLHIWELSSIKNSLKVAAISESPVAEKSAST

As to `CCCCCC(C)c1ccc([C@@H]2[C@@H](C/C=C\CCCC(=O)O)[C@H](C#N)C[C@H]2C)cc1` (stereo partly drawn), the “Ca2+ Signal-EC50 (nM) FP” value in assay [1] is reported as “not active”. For the same compound, the “Ca2+ Signal-EC50 (nM) TP” value in assay [2] (Table 3, third part) is given as “not active”.
With `CC(C)(C)c1ccc(N2C(=O)CC[C@@H]2COCc2ccc(C(=O)O)s2)cc1`, in assay [2] (read-out: Other Receptors EC50 hTP), the EC50 (commonly the concentration needed to bring the measured effect to its halfway point) is more than 10 µM.
